Values after ≈ are worked out from the molar mass of the structure shown.
What was measured:
Experiment in all cases: Gradient Plate technique, MIC
Type in all cases: cell-based
[1] = system: Aerobacter aerogenes; conditions: Klebsiella aerogenes, read-out: Minimum Inhibitory Concentration
Description: (§1) The following Table II lists the minimum inhibitory concentration (MIC) for 7-[2-(2-thienyl)acetamido]-3-chloro-3-cephem-4-carboxylic acid against penicillin resistant Staphylococcus both in the presence of and absence of serum. The MIC values were obtained by the Gradient Plate technique carried out essentially as described by Bryson and Szybalski, Science, 116, 45 (1952).
(§2) In Table III, below, the MIC values for the test compound of Tables I and II against representative gram-negative organisms is presented. The data were obtained by the Gradient Plate technique.
(§3) The minimum inhibitory concentrations for 7-[2-(2-thienyl)acetamido]-3-bromo-3-cephem-4-carboxylic acid against representative gram-negative bacteria is presented in Table VI. The data were obtained by the Gradient Plate Method.
(§4) Tables VII and VIII list the minimum inhibitory concentrations of the test compound effective against representative penicillin resistant Staphylococcus strains, while […] the MIC values obtained against representative gram-negative microorganisms. The data were obtained by the Gradient Plate method.

[2] = system: Escherichia coli; conditions: read-out: Minimum Inhibitory Concentration
Description: as §1, §2, §3, §4

[3] = system: Klebsiella pneumoniae; conditions: read-out: Minimum Inhibitory Concentration
Description: as §1, §2, §3, §4

[4] = system: Pseudomonas aeruginosa; conditions: read-out: Minimum Inhibitory Concentration
Description: as §1, §2, §3, §4

[5] = system: Salmonella heidelberg; conditions: Salmonella enterica, read-out: Minimum Inhibitory Concentration
Description: as §1, §2, §3, §4

[6] = system: Shigella sp.; conditions: read-out: Minimum Inhibitory Concentration
Description: as §1, §2, §3, §4

O=C(Cc1cccs1)NC1C(=O)N2C(C(=O)O)=C(Br)CS[C@H]12 (stereo partly drawn) [7-[2-(2-Thienyl)acetamido]-3-bromo-3-cephem-4-carboxylic acid]
MIC [1]: 1 µg/mL (≈ 2.48 µM)
MIC [2]: 20.8 µg/mL (≈ 51.6 µM)
MIC [3]: 1 µg/mL (≈ 2.48 µM)
MIC [4]: > 200 µg/mL
MIC [5]: 1 µg/mL (≈ 2.48 µM)
MIC [6]: 19.8 µg/mL (≈ 49.1 µM)
